± gives the standard deviation of the reports.
Row | SMILES | glass transition temperature [°C]
1 | *c1cccc(C(=O)Nc2ccc(Oc3ccc(Oc4ccc(NC(=O)c5cccc(N6C(=O)c7ccc(-c8ccc9c(c8)C(=O)N(*)C9=O)cc7C6=O)c5)cc4)cc3)cc2)c1 (repeat unit) | 244.00
2 | *C/C=C/C[Si](*)(C)CCCOc1ccc(-c2ccccc2)cc1 (repeat unit) | 10.00
3 | *CC(*)(C)C(=O)OCCS(=O)CC (repeat unit) | 25.00
4 | *C(=O)c1ccc2c(c1)C(=O)N(c1ccc(Oc3ccc(C(=O)c4cccc(C(=O)c5ccc(Oc6ccc(N7C(=O)c8ccc(*)cc8C7=O)cc6)cc5)n4)cc3)cc1)C2=O (repeat unit) | 314.50
5 | *C(=O)OCCCSCCCCSCCCOC(=O)c1ccc(N2C(=O)c3ccc(*)cc3C2=O)cc1 (repeat unit) | 39.00
6 | *Oc1cccc(C(=O)Nc2ccc(S(=O)(=O)c3ccc(NC(=O)c4cccc(Oc5nc(*)nc(Sc6ccccc6)n5)c4)cc3)cc2)c1 (repeat unit) | 304.00
7 | *C(=O)c1ccc2c(c1)C(=O)N(c1ccc(Oc3cccc(Oc4ccc(N5C(=O)c6ccc(*)cc6C5=O)cc4)c3C#N)cc1)C2=O (repeat unit) | 245.00
8 | *CC(*)(C)C(=O)OCSC (repeat unit) | 60.00
9 | *CC(COCC=C)S* (repeat unit) | -59.00
10 | *c1ccc(C(c2ccc(N3C(=O)c4ccc(Oc5cccc6c(Oc7ccc8c(c7)C(=O)N(*)C8=O)cccc56)cc4C3=O)cc2)(C(F)(F)F)C(F)(F)F)cc1 (repeat unit) | 276.00
11 | *c1ccc(NC(=O)c2ccc(OCCOCCOCCOCCOCCOc3ccc(C(=O)Nc4ccc5[nH]c(*)nc5c4)cc3)cc2)cc1 (repeat unit) | 125.00
12 | *CC(*)c1ccc(COCCC)cc1 (repeat unit) [Poly(p-n-propoxymethyl styrene) ] | 22 ± 1.2
13 | *c1cc(CCCCCCOC(=O)COC)c(*)s1 (repeat unit) | 37.00
14 | *OP(=O)(Oc1cccc2c(*)cccc12)OC1CCCCC1 (repeat unit) | 134.00
15 | *c1ccc(C(=O)NCCCCCCCCCCNC(=O)c2ccc(-c3nc4ccccc4nc3*)cc2)cc1 (repeat unit) | 166.00
16 | *Oc1ccc(C(C)(C)c2ccc(OC(=O)OCCN(CCOC(*)=O)c3ccc4[nH]c5ccccc5c4c3)cc2)cc1 (repeat unit) | 90.00
17 | *Nc1ccc(C(c2ccc(NC(=O)c3cc(NC(=O)CCCN4C(=O)c5ccccc5C4=O)cc(C(*)=O)c3)cc2)(C(F)(F)F)C(F)(F)F)cc1 (repeat unit) | 240.00
18 | *CC(*)(C)C(=O)Oc1cc(C)cc(C)c1 (repeat unit) | 106.00
19 | *c1ccc(C(c2ccc(N(*)c3ccc(C)cc3)cc2)c2ccc([N+](=O)[O-])cc2)cc1 (repeat unit) | 215.00
20 | *CC(*)c1ccc(C(=O)OC(C)C)cc1 (repeat unit) | 95.00
21 | *CC(*)c1ccc(C(C)=O)cc1 (repeat unit) | 115.50
22 | *CC(*)c1c(F)c(F)c(P(=O)(O)O)c(F)c1F (repeat unit) | 330.00
23 | *CC(O)COC(=O)CCCCCCCCCCC(=O)OCC(O)COc1ccc(C(C)(C)c2ccc(O*)cc2)cc1 (repeat unit) | 25.00
24 | *c1ccc2c(c1)C(=O)N(c1ccc(S(=O)(=O)c3ccc(N4C(=O)c5ccc(C(F)(F)C(F)(F)C(*)(F)F)cc5C4=O)cc3)cc1)C2=O (repeat unit) | 259.00

Row | SMILES | glass transition temperature [°C]
25 | *Cc1cccc(COC(=O)Nc2ccc(Cc3ccc(NC(=O)O*)cc3)cc2)c1 (repeat unit) | 106.00
26 | *CCCCCCCCCCCCN1C(=O)c2ccc(C(=O)c3ccc4c(c3)C(=O)N(*)C4=O)cc2C1=O (repeat unit) | 87.50
27 | *c1ccc(Sc2ccc(-n3c(=O)c4cc5c(=O)n(*)c(=O)c5cc4c3=O)cn2)nc1 (repeat unit) | 359.00
28 | *CC(O)COc1ccc(C(=O)c2ccc(OCC(O)COc3ccc(C(C)(C)c4ccc(O*)cc4)cc3)cc2)cc1 (repeat unit) | 120.00
29 | *c1ccc2c(c1)C(CCCCCCCC)(CCCCCCCC)c1cc(-c3c(F)c(F)c(*)c(F)c3F)ccc1-2 (repeat unit) | 29.00
30 | *CC1CC(*)OCO1 (repeat unit) [Poly(vinyl formal) ] | 104 ± 21
31 | *CCCC(C)(C)CNC(=O)CCCCCCCC(=O)N* (repeat unit) | 63.00
32 | *CC(*)(Cl)C(=O)OCCC (repeat unit) | 66.00
33 | *Oc1ccc(/N=N/c2ccc(Oc3ccc(C(C)(C)c4ccc(*)cc4)cc3)cc2)cc1 (repeat unit) | 175.00
34 | *Oc1ccc(S(=O)(=O)c2ccc(-c3ccc(-c4ccc(S(=O)(=O)c5ccc(Oc6ccc(-c7ccc(*)cc7)cc6)cc5)cc4)cc3)cc2)cc1 (repeat unit) | 264.00
35 | *c1ccc(Oc2ccc(Oc3ccc(N4C(=O)C(c5ccccc5)=C(c5ccc(C6=C(c7ccccc7)C(=O)N(*)C6=O)cc5)C4=O)cc3)cc2)cc1 (repeat unit) | 267.00
36 | *Oc1ccc(CCNC(=O)c2cccc(C(=O)NCCc3ccc(OC(=O)c4cccc(C(*)=O)c4)cc3)c2)cc1 (repeat unit) | 147.00
37 | *C(=O)c1cc(C(=O)c2ccc3c(c2)C(=O)N(c2ccc(C(c4ccc(N5C(=O)c6ccc(*)cc6C5=O)cc4)(C(F)(F)F)C(F)(F)F)cc2)C3=O)cc(-c2ccccc2)c1 (repeat unit) | 260.50
38 | *c1ccc(Oc2ccc(Oc3ccc(N4C(=O)c5ccc(Oc6ccc(-c7ccc(Oc8ccc9c(c8)C(=O)N(*)C9=O)cc7)cc6)cc5C4=O)cc3)cc2)cc1 (repeat unit) | 222.00
39 | *CCN(*)C(=O)c1ccccc1 (repeat unit) | 111.00
40 | *CCC/C=C(/*)c1ccc(Cl)cc1 (repeat unit) | 16.00
41 | *O/C(=C/CC)C(CC)C(*)=O (repeat unit) | -15.90
42 | *Oc1cc(CCCC)cc(OC(=O)c2cccc(C(*)=O)c2)c1 (repeat unit) | 97.50
43 | *C(=O)Nc1cccc(Oc2cccc(Oc3cccc(Oc4cccc(Oc5cccc(NC(=O)c6ccc7c(c6)C(=O)N(c6cccc(Oc8cccc(Oc9cccc(N%10C(=O)c%11ccc(*)cc%11C%10=O)c9)c8C#N)c6)C7=O)c5)c4C#N)c3)c2C#N)c1 (repeat unit) | 193.00
44 | *CCCCCCN1C(=O)c2ccc(-c3ccc(-c4ccc5c(c4)C(=O)N(*)C5=O)cc3)cc2C1=O (repeat unit) | 141.00
45 | *Oc1ccc(P(C)(=O)c2ccc(Oc3ccc(C(c4ccc(*)cc4)(C(F)(F)F)C(F)(F)F)cc3)cc2)cc1 (repeat unit) | 208.00
46 | *Oc1ccc(Oc2ccc(C(=O)c3ccc(C(=O)c4ccc(*)cc4)cc3)cc2)cc1-c1ccccc1 (repeat unit) | 166.00
47 | *C1CCC(CC2CCC(N3C(=O)c4ccc(Oc5ccc6c(c5)C(=O)N(*)C6=O)cc4C3=O)C(C)C2)CC1C (repeat unit) | 250.00
48 | *OC(C)(CC(*)=O)C(F)(F)F (repeat unit) | 27.00

Reference: the PolyMetriX glass transition set
